Measurements from ChEMBL document CHEMBL1255475, “Mutant prevention concentrations of four carbapenems against gram-negative rods” (2010).
In brackets after ≈: the same amount, converted by molar mass.

Experiments:
Escherichia coli [1] = experiment: Antibacterial activity against beta-lactamase-positive ESBL-negative Escherichia coli E437 after 24 hrs by agar dilution method; conditions: E437, 24 h
Escherichia coli [2] = experiment: Antibacterial activity against beta-lactamase-negative Escherichia coli E347 after 24 hrs by agar dilution method; conditions: E347, 24 h
Klebsiella pneumoniae [3] = experiment: Antibacterial activity against beta-lactamase-positive ESBL-negative Klebsiella pneumoniae E480 after 24 hrs by agar dilution method; format: functional; conditions: E480, 24 h
Klebsiella pneumoniae [4] = experiment: Antibacterial activity against beta-lactamase-negative Klebsiella pneumoniae E419 after 24 hrs by agar dilution method; format: functional; conditions: E419, 24 h
Escherichia coli [5] = experiment: Antibacterial activity against beta-lactamase-positive ESBL-negative Escherichia coli E412 after 24 hrs by agar dilution method; conditions: E412, 24 h
Pseudomonas aeruginosa [6] = experiment: Antibacterial activity against Pseudomonas aeruginosa P370 after 24 hrs by agar dilution method; conditions: P370, 24 h
Escherichia coli [7] = experiment: Antibacterial activity against beta-lactamase-negative Escherichia coli E425 after 24 hrs by agar dilution method; conditions: E425, 24 h
Klebsiella pneumoniae [8] = experiment: Antibacterial activity against beta-lactamase-positive ESBL-negative Klebsiella pneumoniae E474 after 24 hrs by agar dilution method; format: functional; conditions: E474, 24 h
Pseudomonas aeruginosa [9] = experiment: Antibacterial activity against Pseudomonas aeruginosa P353 after 24 hrs by agar dilution method; format: functional; conditions: P353, 24 h
Acinetobacter baumannii [10] = experiment: Antibacterial activity against Acinetobacter baumannii A931 after 24 hrs by agar dilution method; format: functional; conditions: A931, 24 h
Escherichia coli [11] = experiment: Antibacterial activity against beta-lactamase-positive ESBL-negative Escherichia coli E430 after 24 hrs by agar dilution method; conditions: E430, 24 h
Klebsiella pneumoniae [12] = experiment: Antibacterial activity against beta-lactamase-negative Klebsiella pneumoniae E418 after 24 hrs by agar dilution method; format: functional; conditions: E418, 24 h
Pseudomonas aeruginosa [13] = experiment: Antibacterial activity against Pseudomonas aeruginosa P327 after 24 hrs by agar dilution method; conditions: P327, 24 h
Acinetobacter baumannii [14] = experiment: Antibacterial activity against Acinetobacter baumannii A910 after 24 hrs by agar dilution method; format: functional; conditions: A910, 24 h
Klebsiella pneumoniae [15] = experiment: Antibacterial activity against beta-lactamase-positive ESBL-positive Klebsiella pneumoniae E476 after 24 hrs by agar dilution method; format: functional; conditions: E476, 24 h
Escherichia coli [16] = experiment: Antibacterial activity against beta-lactamase-positive ESBL-positive Escherichia coli E446 after 24 hrs by agar dilution method; conditions: E446, 24 h
Klebsiella pneumoniae [17] = experiment: Antibacterial activity against beta-lactamase-positive ESBL-negative Klebsiella pneumoniae E479 after 24 hrs by agar dilution method; format: functional; conditions: E479, 24 h
Klebsiella pneumoniae [18] = experiment: Antibacterial activity against beta-lactamase-negative Klebsiella pneumoniae E417 after 24 hrs by agar dilution method; format: functional; conditions: E417, 24 h
Escherichia coli [19] = experiment: Antibacterial activity against beta-lactamase-positive ESBL-positive Escherichia coli E452 after 24 hrs by agar dilution method; conditions: E452, 24 h
Acinetobacter baumannii [20] = experiment: Antibacterial activity against Acinetobacter baumannii A903 after 24 hrs by agar dilution method; format: functional; conditions: A903, 24 h
Pseudomonas aeruginosa [21] = experiment: Antibacterial activity against Pseudomonas aeruginosa P373 after 24 hrs by agar dilution method; conditions: P373, 24 h
Acinetobacter baumannii [22] = experiment: Antibacterial activity against Acinetobacter baumannii A901 after 24 hrs by agar dilution method; format: functional; conditions: A901, 24 h
Escherichia coli [23] = experiment: Antibacterial activity against beta-lactamase-negative Escherichia coli E348 after 24 hrs by agar dilution method; conditions: E348, 24 h
Acinetobacter baumannii [24] = experiment: Antibacterial activity against Acinetobacter baumannii A891 after 24 hrs by agar dilution method; format: functional; conditions: A891, 24 h
Acinetobacter baumannii [25] = experiment: Antibacterial activity against Acinetobacter baumannii A850 after 24 hrs by agar dilution method; format: functional; conditions: A850, 24 h
Acinetobacter baumannii [26] = experiment: Antibacterial activity against Acinetobacter baumannii A890 after 24 hrs by agar dilution method; format: functional; conditions: A890, 24 h
Acinetobacter baumannii [27] = experiment: Antibacterial activity against Acinetobacter baumannii A928 after 24 hrs by agar dilution method; format: functional; conditions: A928, 24 h
Klebsiella pneumoniae [28] = experiment: Antibacterial activity against beta-lactamase-negative Klebsiella pneumoniae E420 after 24 hrs by agar dilution method; format: functional; conditions: E420, 24 h
Escherichia coli [29] = experiment: Antibacterial activity against beta-lactamase-positive ESBL-negative Escherichia coli E484 after 24 hrs by agar dilution method; format: functional; conditions: E484, 24 h
Acinetobacter baumannii [30] = experiment: Antibacterial activity against Acinetobacter baumannii A864 after 24 hrs by agar dilution method; format: functional; conditions: A864, 24 h
Escherichia coli [31] = experiment: Antibacterial activity against beta-lactamase-positive ESBL-positive Escherichia coli E465 after 24 hrs by agar dilution method; conditions: E465, 24 h
Escherichia coli [32] = experiment: Antibacterial activity against beta-lactamase-positive ESBL-positive Escherichia coli E450 after 24 hrs by agar dilution method; conditions: E450, 24 h
Pseudomonas aeruginosa [33] = experiment: Ratio of mutant prevention concentration to minimum Inhibitory concentration for Pseudomonas aeruginosa P341; format: functional
Pseudomonas aeruginosa [34] = experiment: Ratio of mutant prevention concentration to minimum Inhibitory concentration for Pseudomonas aeruginosa P370; format: functional
Acinetobacter baumannii [35] = experiment: Ratio of mutant prevention concentration to minimum Inhibitory concentration for Acinetobacter baumannii A851; format: functional
Pseudomonas aeruginosa [36] = experiment: Ratio of mutant prevention concentration to minimum Inhibitory concentration for Pseudomonas aeruginosa P365; format: functional
Acinetobacter baumannii [37] = experiment: Ratio of mutant prevention concentration to minimum Inhibitory concentration for Acinetobacter baumannii A867; format: functional
Acinetobacter baumannii [38] = experiment: Ratio of mutant prevention concentration to minimum Inhibitory concentration for Acinetobacter baumannii A849; format: functional
Pseudomonas aeruginosa [39] = experiment: Ratio of mutant prevention concentration to minimum Inhibitory concentration for Pseudomonas aeruginosa P328; format: functional
Acinetobacter baumannii [40] = experiment: Ratio of mutant prevention concentration to minimum Inhibitory concentration for Acinetobacter baumannii A896; format: functional
Acinetobacter baumannii [41] = experiment: Ratio of mutant prevention concentration to minimum Inhibitory concentration for Acinetobacter baumannii A892; format: functional
Acinetobacter baumannii [42] = experiment: Ratio of mutant prevention concentration to minimum Inhibitory concentration for Acinetobacter baumannii A931; format: functional
Acinetobacter baumannii [43] = experiment: Ratio of mutant prevention concentration to minimum Inhibitory concentration for Acinetobacter baumannii A848; format: functional
Pseudomonas aeruginosa [44] = experiment: Ratio of mutant prevention concentration to minimum Inhibitory concentration for Pseudomonas aeruginosa P322; format: functional
Acinetobacter baumannii [45] = experiment: Ratio of mutant prevention concentration to minimum Inhibitory concentration for Acinetobacter baumannii A897; format: functional
Pseudomonas aeruginosa [46] = experiment: Ratio of mutant prevention concentration to minimum Inhibitory concentration for Pseudomonas aeruginosa P335; format: functional
Acinetobacter baumannii [47] = experiment: Ratio of mutant prevention concentration to minimum Inhibitory concentration for Acinetobacter baumannii A912; format: functional
Pseudomonas aeruginosa [48] = experiment: Ratio of mutant prevention concentration to minimum Inhibitory concentration for Pseudomonas aeruginosa P352; format: functional
Acinetobacter baumannii [49] = experiment: Ratio of mutant prevention concentration to minimum Inhibitory concentration for Acinetobacter baumannii A865; format: functional
Acinetobacter baumannii [50] = experiment: Ratio of mutant prevention concentration to minimum Inhibitory concentration for Acinetobacter baumannii A864; format: functional
Pseudomonas aeruginosa [51] = experiment: Ratio of mutant prevention concentration to minimum Inhibitory concentration for Pseudomonas aeruginosa P356; format: functional
Acinetobacter baumannii [52] = experiment: Ratio of mutant prevention concentration to minimum Inhibitory concentration for Acinetobacter baumannii A910; format: functional
Pseudomonas aeruginosa [53] = experiment: Ratio of mutant prevention concentration to minimum Inhibitory concentration for Pseudomonas aeruginosa P323; format: functional
Pseudomonas aeruginosa [54] = experiment: Ratio of mutant prevention concentration to minimum Inhibitory concentration for Pseudomonas aeruginosa P337; format: functional
Acinetobacter baumannii [55] = experiment: Ratio of mutant prevention concentration to minimum Inhibitory concentration for Acinetobacter baumannii A884; format: functional

Work on `C[C@@H](O)[C@H]1C(=O)N2C(C(=O)O)=C(SCCNC=N)C[C@H]12` [IMIPENEM ANHYDROUS] yielded an MIC (Escherichia coli [1]) of 0.25 µg/mL (≈ 0.835 µM), an MIC (Escherichia coli [2]) of 0.25 µg/mL (≈ 0.835 µM) and an MIC (Klebsiella pneumoniae [3]) of 2 µg/mL (≈ 6.68 µM). For the same compound, the MIC (Klebsiella pneumoniae [4]) was 0.5 µg/mL (≈ 1.67 µM), the MIC (Escherichia coli [5]) was 0.25 µg/mL (≈ 0.835 µM) and the MIC (Pseudomonas aeruginosa [6]) was 1 µg/mL (≈ 3.34 µM). For the same compound, the MIC (Escherichia coli [7]) was 0.25 µg/mL (≈ 0.835 µM), the MIC (Klebsiella pneumoniae [8]) was 8 µg/mL (≈ 26.7 µM) and the MIC (Pseudomonas aeruginosa [9]) was 8 µg/mL (≈ 26.7 µM). For the same compound, the MIC (Acinetobacter baumannii [10]) was 0.5 µg/mL (≈ 1.67 µM), the MIC (Escherichia coli [11]) was 0.5 µg/mL (≈ 1.67 µM) and the MIC (Klebsiella pneumoniae [12]) was 2 µg/mL (≈ 6.68 µM). For the same compound, the MIC (Pseudomonas aeruginosa [13]) was 2 µg/mL (≈ 6.68 µM), the MIC (Acinetobacter baumannii [14]) was 0.5 µg/mL (≈ 1.67 µM) and the MIC (Klebsiella pneumoniae [15]) was 8 µg/mL (≈ 26.7 µM). It also gave an MIC (Escherichia coli [16]) of 0.25 µg/mL (≈ 0.835 µM), an MIC (Klebsiella pneumoniae [17]) of 8 µg/mL (≈ 26.7 µM) and an MIC (Klebsiella pneumoniae [18]) of 0.5 µg/mL (≈ 1.67 µM). For the same compound, the MIC (Escherichia coli [19]) was 0.125 µg/mL (≈ 0.418 µM), the MIC (Acinetobacter baumannii [20]) was 0.5 µg/mL (≈ 1.67 µM) and the MIC (Pseudomonas aeruginosa [21]) was 2 µg/mL (≈ 6.68 µM). It also gave an MIC (Acinetobacter baumannii [22]) of 2 µg/mL (≈ 6.68 µM), an MIC (Escherichia coli [23]) of 0.125 µg/mL (≈ 0.418 µM) and an MIC (Acinetobacter baumannii [24]) of 0.5 µg/mL (≈ 1.67 µM). It also gave an MIC (Acinetobacter baumannii [25]) of 4 µg/mL (≈ 13.4 µM), an MIC (Acinetobacter baumannii [26]) of 0.5 µg/mL (≈ 1.67 µM) and an MIC (Acinetobacter baumannii [27]) of 0.5 µg/mL (≈ 1.67 µM). The MIC (Klebsiella pneumoniae [28]) was 0.25 µg/mL (≈ 0.835 µM), the MIC (Escherichia coli [29]) was 4 µg/mL (≈ 13.4 µM) and the MIC (Acinetobacter baumannii [30]) was 8 µg/mL (≈ 26.7 µM). It also gave an MIC (Escherichia coli [31]) of 0.25 µg/mL (≈ 0.835 µM) and an MIC (Escherichia coli [32]) of 0.125 µg/mL (≈ 0.418 µM).
For `C[C@@H](O)[C@H]1C(=O)N2C(C(=O)O)=C(S[C@@H]3CN[C@H](CNS(N)(=O)=O)C3)[C@H](C)[C@H]12` [DORIPENEM], the Ratio (Pseudomonas aeruginosa [33]) was 16, the Ratio (Pseudomonas aeruginosa [34]) was 16 and the Ratio (Acinetobacter baumannii [35]) was 4. It also gave a Ratio (Pseudomonas aeruginosa [36]) of 16, a Ratio (Acinetobacter baumannii [37]) of 16 and a Ratio (Acinetobacter baumannii [38]) of 4. It also gave a Ratio (Pseudomonas aeruginosa [39]) of 2, a Ratio (Acinetobacter baumannii [40]) of 2 and a Ratio (Acinetobacter baumannii [41]) of 16. It also gave a Ratio (Acinetobacter baumannii [42]) of 2, a Ratio (Acinetobacter baumannii [43]) of 2 and a Ratio (Pseudomonas aeruginosa [44]) of 8. The Ratio (Acinetobacter baumannii [45]) was 2, the Ratio (Pseudomonas aeruginosa [46]) was 8 and the Ratio (Acinetobacter baumannii [47]) was 2. It also gave a Ratio (Pseudomonas aeruginosa [48]) of 2, a Ratio (Acinetobacter baumannii [49]) of 8 and a Ratio (Acinetobacter baumannii [50]) of 8. It also gave a Ratio (Pseudomonas aeruginosa [51]) greater than 16, a Ratio (Acinetobacter baumannii [52]) of 2 and a Ratio (Pseudomonas aeruginosa [53]) of 8. It also gave a Ratio (Pseudomonas aeruginosa [54]) of 8 and a Ratio (Acinetobacter baumannii [55]) of 2.
